Several values for one entry are separate records, joined by “and”; a condition that tells them apart may be missing. Equal entries are not always repeated. Where two headings read alike, the source gives them in different places. Marks after values point to notes of the source that are not given here.
What was measured:
Type in all cases: in vivo, Cynomolgus monkeys
[1] = Vaginal tissue (biopsy) concentration after intravaginal administration of vaginal ring; settings: 6-fold higher dose; Day 28
Method: (§1) The study was performed in four single dose phases with 28-day sampling period after Phases 1 and 2 (7-day washout period between doses). Vaginal rings were investigated for Pritelivir free base and Pritelivir mesylate salt at two dose levels per formulation. The test items were applied as vaginal ring in Phases 1 and 2 to female monkeys. The study design is below in the Table 3.
(§2) Vulval and vaginal biopsies were taken from all animals at the following times in relation to dosing.
(§3) For the sampling biopsies were taken with a suitable biopsy instrument. Biopsy samples were snap frozen on dry ice following collection and stored deep frozen (−20° C. or below) until analysis.
(§4) After suitable dilution, plasma and vaginal samples were analyzed on UPLC system Waters Acquity UPLC-HSS PFP column with 1.8 μm particles (100×2.1 mm) by gradient elution using 0.1% formic acid and methanol containing 0.1% formic acid. For detection, a time-of-flight mass spectrometer (Xevo GS-2 QTOF, Waters) was used operating in positive ionization mode (MSe analysis). The samples were analyzed for their content of Pritelivir free base.
Vaginal and vulval biopsies were taken 28 Days after administration of intravaginal rings. As biopsies were not weighed prior extraction, weights were estimated based on data from similar investigations using the same settings for biopsies. […]

[2] = Vulval tissue (biopsy) concentration after intravaginal administration of vaginal ring; settings: ring 40 mg free base; Phase 1; Day 28; per animal; biopsy weight estimated
Method: as §1, §2, §3, §4
Vaginal and vulval biopsies were taken 28 Days after administration of intravaginal rings. As biopsies were not weighed prior extraction, weights were estimated based on data from similar investigations using the same settings for biopsies. From this study minimum, maximum, and mean biopsy weight was used for the calculation. These biopsy weights ranged from 0.7 to 6.3 mg, mean 2.95 mg. For all calculations it was assumed that 1 kg tissue is equal to 1 L water.

[3] = Plasma concentration after intravaginal administration of vaginal ring
Method: as §1
Venous blood samples were taken from all animals at the following times in relation to dosing.
• Blood sample site Femoral site • Blood volume 1.0 mL • Anticoagulant For phase 1 samples, Day 1-3 only, blood was sampled into standard HLS vials containing lithium heparin and 20 μL aqueous phosphoric acid (3.5 molar). Thereafter, blood was collected into tubes containing lithium heparin only. Plasma was obtained from all samples by centrifugation. Samples were appropriately labeled and stored deep frozen (−20° C. or below) until analysis • Total no. of blood samples 350 Vaginal Fluid Sampling
as §4
The study was designed to obtain information on the time-course of unchanged test compound concentrations in plasma and vaginal fluid/tissue, following single intravaginal administration of rings to female Cynomolgus monkeys. Objectives of this study were to determine the safety and tolerance of Pritelivir loaded rings, as well as systemic and local exposure (plasma, vaginal fluid and vaginal and vulval tissue, respectively). Local exposures were compared with in vitro efficacy data of Pritelivir to get an idea on initial pharmacokinetic/pharmacodynamic (PK/PD) parameters for vaginal rings, i.e. to assess the potential ability of a Pritelivir loaded ring to suppress viral replication in the target tissue. Table 9 gives an overview on the EC50 values of Pritelivir on HSV-1 and HSV-2 Data source: Field, H. J., et al., Baseline sensitivity of HSV-1 and HSV-2 clinical isolates and defined acyclovir-resistant strains to the helicase-primase inhibitor pritelivir. Antiviral Res, 2013. 100(2): p. 297-9. EC50=50% effective concentration.

[4] = female, cynomolgus monkey, plasma, other: intravaginal (vaginal ring), 40 mg, ring 40 mg free base, Phase 1 Group 1, group mean, read-out: Plasma concentration of Pritelivir free base, Mean
[5] = female, cynomolgus monkey, plasma, other: intravaginal (vaginal ring), 40 mg, ring 40 mg free base, Phase 1 Group 1, individual animals, read-out: Plasma concentration of Pritelivir free base
[6] = female, cynomolgus monkey, plasma, other: intravaginal (vaginal ring), 240 mg, ring 240 mg free base, Phase 2 Group 1, group mean, read-out: Plasma concentration of Pritelivir free base, Mean
[7] = female, cynomolgus monkey, plasma, other: intravaginal (vaginal ring), 240 mg, ring 240 mg free base, Phase 2 Group 1, individual animals, read-out: Plasma concentration of Pritelivir free base

Increase of vaginal tissue concentrations, Phase 2 vs Phase 1 [1]: 2 fold | Vulval tissue concentration of Pritelivir free base, Max [2]: <2.0 µg/g and 0.134 µg/g and 0.742 µg/g | Vulval tissue concentration of Pritelivir free base, Mean [2]: <2.0 µg/g and 0.0318 µg/g and 0.176 µg/g | All plasma concentrations of Pritelivir ([3]; Phases 1 and 2, up to 28 Days, all rings): < 132 nM and < 54 μg/L | concentration at 0.0417 d [3, 4]: 3.43 ng/mL | concentration at 0.0417 d [3, 5]: 2.44 ng/mL | concentration at 0.167 d [3, 4]: 5.61 ng/mL | concentration at 0.167 d [3, 5]: 2.38 ng/mL | concentration at 0.333 d [3, 4]: 6.4 ng/mL | concentration at 0.333 d [3, 5]: 2.22 ng/mL | concentration at 4 d [3, 4]: 3.86 ng/mL | concentration at 4 d [3, 5]: 3.21 ng/mL | concentration at 7 d [3, 4]: 3.66 ng/mL | concentration at 7 d [3, 5]: 3.55 ng/mL | concentration at 10 d [3, 4]: 3.36 ng/mL | concentration at 10 d [3, 5]: 3.92 ng/mL | concentration at 14 d [3, 4]: 3.31 ng/mL | concentration at 14 d [3, 5]: 2.81 ng/mL | concentration at 17 d [3, 4]: 3.2 ng/mL | concentration at 17 d [3, 5]: 2.64 ng/mL | concentration at 21 d [3, 4]: 2.91 ng/mL | concentration at 21 d [3, 5]: 3 ng/mL | concentration at 24 d [3, 4]: 2.99 ng/mL | concentration at 24 d [3, 5]: 3.21 ng/mL | concentration at 28 d [3, 4]: 2.79 ng/mL | concentration at 28 d [3, 5]: 2.6 ng/mL | concentration at 0.0833 d [3, 6]: 3.68 ng/mL | concentration at 0.0833 d [3, 7]: 4.41 ng/mL | concentration at 0.167 d [3, 6]: 4.58 ng/mL | concentration at 0.333 d [3, 6]: 5.87 ng/mL | concentration at 3 d ([3]; female, cynomolgus monkey, plasma, other: intravaginal (vaginal ring), 240 mg, ring 240 mg free base, Phase 2 Group 1, 3 d, individual animals, read-out: Plasma concentration of Pritelivir free base): 26.8 ng/mL | concentration at 4 d [3, 7]: 26 ng/mL | concentration at 7 d [3, 7]: 16.4 ng/mL | concentration at 10 d [3, 7]: 9.46 ng/mL | concentration at 14 d [3, 7]: 9.48 ng/mL | concentration at 17 d [3, 7]: 10.8 ng/mL | concentration at 21 d [3, 7]: 7.78 ng/mL | concentration at 24 d [3, 7]: 9.71 ng/mL | concentration at 28 d [3, 7]: 12.7 ng/mL | Plasma concentration of Pritelivir free base ([3]; ring 40 mg free base, Phase 1 Group 1, 0 d (pre-dose), individual animals): 2.70 ^a μg/L
Compound: Cc1nc(N(C)C(=O)Cc2ccc(-c3ccccn3)cc2)sc1S(N)(=O)=O [Pritelivir free base]
Vulval tissue concentration of Pritelivir free base, Min [2]: <2.0 µg/g and 0.0149 µg/g and 0.0825 µg/g

Source: patent US11213516B2, “Intravaginally applicable devices comprising antiviral compounds” (AICURIS ANTI-INFECTIVE CURES GMBH, priority 2017, dated 2022)
